“Also recorded” adds a separate entry of the source.
Columns and labels:
[1] = target: human delta (DOP) receptor (Homo sapiens, UniProt P41143); assay type: cell-based
[2] = target: D2L human dopamine GPCR (Homo sapiens, UniProt P14416); assay type: cell-based
[3] = target: Opiate μ (Homo sapiens, UniProt P35372); assay type: binding
[4] = cited from earlier work
[5] = system: dopamine receptors; settings: cited from earlier work
[6] = system: adult patients; settings: human, in vivo; cited from earlier work
[7] = system: opioid addiction syndrome; settings: in vivo; cited from earlier work
[8] = target: Sigma 2 (Homo sapiens, UniProt Q5BJF2); settings: cited from earlier work
[9] = in vivo; cited from earlier work
[10] = system: patients; settings: human, in vivo; cited from earlier work
[11] = system: Mecp2-null mice; settings: mouse, in vivo; cited from earlier work

D2L human dopamine GPCR, sequence (P14416 whole entry): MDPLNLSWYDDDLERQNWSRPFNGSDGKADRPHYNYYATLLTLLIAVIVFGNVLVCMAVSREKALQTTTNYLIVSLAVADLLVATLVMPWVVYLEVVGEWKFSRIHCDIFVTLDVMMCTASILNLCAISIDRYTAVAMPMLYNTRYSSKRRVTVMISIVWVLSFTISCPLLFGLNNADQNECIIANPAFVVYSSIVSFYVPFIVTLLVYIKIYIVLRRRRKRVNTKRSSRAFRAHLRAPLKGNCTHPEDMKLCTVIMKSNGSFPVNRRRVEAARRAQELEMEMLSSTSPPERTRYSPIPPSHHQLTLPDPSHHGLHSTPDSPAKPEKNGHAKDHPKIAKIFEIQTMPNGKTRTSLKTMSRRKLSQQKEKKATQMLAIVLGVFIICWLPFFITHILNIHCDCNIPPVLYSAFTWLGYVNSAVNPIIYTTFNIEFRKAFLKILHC
Opiate μ, sequence (P35372 whole entry): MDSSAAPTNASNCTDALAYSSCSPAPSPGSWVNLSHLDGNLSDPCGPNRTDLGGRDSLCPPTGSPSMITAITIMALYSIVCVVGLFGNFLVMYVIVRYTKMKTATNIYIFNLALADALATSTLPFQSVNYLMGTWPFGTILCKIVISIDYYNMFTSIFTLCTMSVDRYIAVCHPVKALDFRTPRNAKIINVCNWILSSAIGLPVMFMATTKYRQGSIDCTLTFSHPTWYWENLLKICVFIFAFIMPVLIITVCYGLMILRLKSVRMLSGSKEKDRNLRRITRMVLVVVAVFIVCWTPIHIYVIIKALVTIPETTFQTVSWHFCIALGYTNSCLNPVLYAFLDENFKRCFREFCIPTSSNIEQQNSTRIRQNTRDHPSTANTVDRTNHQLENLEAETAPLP
human delta (DOP) receptor, sequence (P41143 whole entry): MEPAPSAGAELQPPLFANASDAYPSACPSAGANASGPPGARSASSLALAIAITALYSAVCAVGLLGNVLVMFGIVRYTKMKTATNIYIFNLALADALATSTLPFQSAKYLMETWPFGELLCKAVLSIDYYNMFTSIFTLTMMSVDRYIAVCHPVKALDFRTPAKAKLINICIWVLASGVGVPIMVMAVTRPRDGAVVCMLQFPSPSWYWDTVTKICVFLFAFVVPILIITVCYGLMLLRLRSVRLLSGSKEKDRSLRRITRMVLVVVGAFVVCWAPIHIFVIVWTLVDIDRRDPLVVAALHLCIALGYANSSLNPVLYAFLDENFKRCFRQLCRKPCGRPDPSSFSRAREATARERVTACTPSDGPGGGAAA
Sigma 2, sequence (Q5BJF2 whole entry): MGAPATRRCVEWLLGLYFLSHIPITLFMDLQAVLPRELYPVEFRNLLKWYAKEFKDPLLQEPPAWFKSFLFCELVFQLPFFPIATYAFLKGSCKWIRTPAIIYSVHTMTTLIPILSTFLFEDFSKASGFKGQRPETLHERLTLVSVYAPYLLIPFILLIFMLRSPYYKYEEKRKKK

SMILES: NC1(c2ccccc2Cl)CCCCC1=O (racemic) [NorKetamine, (R,S)-Norketamine]
- Opiate delta1R (antagonist) [1]: Not active
- DRD2L Agonist [2]: Not active
- ability to bind dopamine 2 receptors [2]: does not appear to bind Dopamine 2 receptors
- Opiate μ [3]: Not active
- binding to Opioid u receptors [3]: does not bind Opioid u receptors
- Water Solubility of Free drug [4]: 0.178 mg/mL
- affinity for / effect on dopamine receptors [5]: do not appear to have a direct effect on dopamine receptors

SMILES: c1ccc(C2(N3CCCCC3)CCCCC2)cc1 [PCP, 1-(1-phencyclohexyl) piperidine]
- adult patients presenting with the classic toxidrome of PCP intoxication [6]: Over 50%

SMILES: NCCc1c[nH]c2ccc(O)cc12 [5HT, 5-hydroxy tryptamine]
- Water Solubility of Free drug [4]: 2.5 mg/mL

SMILES: NCCc1c[nH]c2ccccc12 [Tryptamine]
- Water Solubility of Free drug [4]: 1.34 mg/mL

SMILES: CC[C@H]1C[C@H]2C[C@H]3c4[nH]c5ccc(OC)cc5c4CCN(C2)[C@@H]13 [Ibogaine]
- drug craving and depressive symptoms [7]: decreases drug craving and improves depressive symptoms

SMILES: CNC1(c2ccccc2Cl)CCCCC1=O (stereo not drawn) [Ketamine, 2-(2-chlorophenyl)-2-(methylamino)-cyclohexanone]
- concentration at which sigma2 receptors are bound [8]: mM concentrations
- half-life [9]: approximately 45 minutes
- patients who develop an emergence phenomenon [10]: More than half the patients
- efficacy by start of treatment [11]: Treatment from day 30 was not effective; also recorded: treatment from day 15 showed some efficacy
- improved survival [11]: 50%
- survival after treatment [11]: 50%
- affinity for / effect on dopamine receptors [5]: not shown any affinity for dopamine 2 receptors; also recorded: do not appear to have a direct effect on dopamine receptors

From patent US20260325658A1 (priority 2022, published 2026)
